From patent US7550469B2, “Heterocyclic amide derivatives and their use as dopamine D3 receptor ligands” (Aventis Pharmaceuticals Inc., priority 2001, dated 2009)
Read-outs that look alike come from different tables or passages of the source.

Assays:
[1] = target: Alpha-1 adrenergic receptors from rat brain cortex; experiment: [3H]Prazosin binding to alpha-1 adrenergic receptors from rat brain cortex (Protocol 4)
From the text: [^3H]Prazosin Binding to Alpha-1 Adrenergic Receptors from Rat Brain Cortex
Objective: This in vitro assay is designed as a screen to identify compounds displaying a affinity for the a, adrenoceptor subtype in membranes from rat cortex. It measures the ability of the test compounds to displace [^3H]prazosin from the α1 sites.
Membrane Preparation: Rat brain tissue can be obtained from either fresh (male Wistar rats; 200-250 g) or frozen (male Sprague-Dawley 200-250 g from Harlan; cat. #BT-403) stocks. The cortex is dissected, homogenized in 50 vol (wet weight) ice-cold 50 mM Tris buffer (pH 7.7 at 25° C.). The homogenate is centrifuged at 48,000 g for 10 min, the pellet is resuspended in 50 mM Tris buffer and centrifuged a second time. The second pellet (P2) is resuspended to yield a concentration of 115 mg wet weight per 10 ml. […] Membranes should be mixed just before addition to ensure an even suspension. […] This is diluted to a 0.5 mM stock in dH2O. Serial dilutions in Buffer A are made from which 50 μl additions to the plate are made in duplicate in order to achieve the final concentrations desired. Typically, one 96 well plate is used to evaluate 11 compounds at 4 concentrations (10^−6-10^−9 M) in duplicate. Total binding and nonspecific binding are determined in quadruplicate. Usually one standard is run with each assay. • [^3H]Prazosin is made up in Buffer A such that when 50 μl are added per well the final concentration is […] in a final assay volume of 200 μl. The final concentration should be verified by running a sample in a scintillation counter prior to adding the [^3H]prazosin to the 96 well plate. Note: The radioactivity should be prepared just before the additions are made so that it is not allowed to sit on the bench for very long. • Packard GF/B Plate Pretreatment: The filter plates are presoaked for at least 30 min in ice cold Buffer B containing 0.05% polyethyleneimine (200 μl/200 ml) to maximize filtration efficiency and minimize filter blank binding. • Incubation & Filtration: Once buffer, compounds, [^3H]prazosin and membrane have been added (and mixed), the 96 well plates are incubated for 40 min at 37° C. and spaced 3-5 min apart. At 40 min, the plates are filtered using a Tomtec Automated Cell Harvester. Filtration is immediately followed by washes of ice cold Buffer B (total vol. ˜7 ml). • Drying and Counting: Each filter plate is dried under a heat lamp for 15 min. The back of the plate is sealed and 40 μl of Packard microscint fluid are added per well. Using Packard film, each plate is heat sealed prior to being counted in a Packard Topcount Scintillation counter. A program has been written that counts each plate twice sending DPM, CPM and TSIS data to disk and printer. • Analysis of Results: Raw DPM and CPM data are captured on disk and are imported into one of several software packages (Graphpad Prism Ver 2.0, Excel) residing on the LAN. Specific binding is defined as the difference between total binding and the binding in the presence of 10 μM phentolamine. Total binding is less than 10% of the total added ligand. Software using one-site competition curve analysis is employed in the calculation of IC50 and KI (Cheng-Prusoff equation, 1973). The top and bottom of the non-linear regression are held constant at 0% and 100% inhibition. The percent inhibition at each drug concentration is the mean of duplicate determinations.

[2] = target: T1, cloned human dopamine D3 receptors (Homo sapiens, UniProt P35462); experiment: [N-Methyl-3H]Spiroperidol binding to cloned human dopamine D3 receptors (Protocol 1); settings: the 23rd table; read-out: D3 Ki
T1 construct: expressed in transfected cells; membrane homogenate
T1 sequence (P35462 whole entry): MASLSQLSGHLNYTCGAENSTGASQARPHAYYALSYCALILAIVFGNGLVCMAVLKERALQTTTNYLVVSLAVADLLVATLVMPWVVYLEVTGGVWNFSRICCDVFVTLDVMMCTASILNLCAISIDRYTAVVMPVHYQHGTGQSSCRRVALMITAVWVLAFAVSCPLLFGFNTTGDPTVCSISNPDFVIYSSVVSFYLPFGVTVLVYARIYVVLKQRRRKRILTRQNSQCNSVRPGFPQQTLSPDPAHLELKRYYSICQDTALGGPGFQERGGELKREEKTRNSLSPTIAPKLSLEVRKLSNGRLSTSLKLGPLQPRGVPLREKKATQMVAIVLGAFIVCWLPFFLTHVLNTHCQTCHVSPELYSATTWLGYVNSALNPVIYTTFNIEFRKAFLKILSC
In short: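 Radioligand displacement with [N-methyl-3H]spiroperidol used a physiological-salt Tris buffer (0.05 M, pH 7.7; NaCl 120 mM, KCl 5 mM, CaCl2 2 mM, MgCl2 1 mM) and membranes of a high-expressing stable CHO clone carrying human D3. Total ligand concentration came from measured added CPM; 0.1% ascorbic acid was optional for oxidizable compounds.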

[3] = r = rat, piperazines (n = 1) vs homopiperazines (n = 2), read-out: r-α1 Ki
[4] = rat α-1, read-out: rat alpha 1 Ki

Structure (SMILES)	Ki [1, 3] [nM]	Ki [1, 4] [nM]	Ki [2] [nM]
O=C(NCCCCN1CCN(c2csc3cc(F)ccc23)CC1)c1cc2ccccc2s1 [compound 811614]	5	5	
COc1ccccc1C(=O)NCCCCN1CCN(c2csc3cc(F)ccc23)CC1 [compound 813368]	4.1	4.1	
O=C(NCCCCN1CCN(c2csc3cc(F)ccc23)CC1)c1ccco1 [compound 813371]	1.1	1.1	
O=C(NCCCCN1CCN(c2csc3cc(F)ccc23)CC1)c1ccc2ccccc2c1 [compound 813372]	40.6		
O=C(NCCCCN1CCN(c2csc3cc(F)ccc23)CC1)c1cc2ccccc2[nH]1 [compound 813373]	25.2		
O=C(NCCCCN1CCN(c2csc3cc(F)ccc23)CC1)c1ccc2c(c1)OCO2 [compound 813375]		2.6	
CCCCOc1ccc(C(=O)NCCCCN2CCN(c3csc4cc(F)ccc34)CC2)cc1 [compound 813376]		10.9	
O=C(NCCCCN1CCN(c2csc3cc(F)ccc23)CC1)c1sc2ccccc2c1Cl [compound 813377]		15.4	
COc1cccc(C(=O)NCCCCN2CCN(c3csc4cc(F)ccc34)CC2)c1 [compound 813380]	21.9		
O=C(NCCCCN1CCN(c2csc3cc(F)ccc23)CC1)c1ccc(Br)cc1 [compound 813381]		32.3	
CCOc1ccc(C(=O)NCCCCN2CCN(c3csc4cc(F)ccc34)CC2)cc1 [compound 813914]		3	
O=C(NCCCCN1CCN(c2csc3cc(F)ccc23)CC1)c1c(F)cccc1F [compound 813918]		4	
O=C(NCCCCN1CCN(c2csc3cc(F)ccc23)CC1)c1ccc(F)cc1F [compound 813920]		2	
O=C(NCCCCN1CCN(c2csc3cc(F)ccc23)CC1)c1ccc2[nH]ccc2c1 [compound 814018]	5		
O=C(NCCCCN1CCN(c2csc3cc(F)ccc23)CC1)c1c[nH]c2ccccc12 [compound 814026]	12		

Results, then the compound that gave them:

Ki [1, 3] [nM]	Ki [1, 4] [nM]	Ki [2] [nM]	Structure (SMILES)
32.4	32.4		O=C(NCCCCN1CCN(c2csc3cc(F)ccc23)CC1)c1ccc(C(F)(F)F)cc1 [compound 813374]
	7		O=C(NCCCCN1CCN(c2csc3cc(F)ccc23)CC1)c1ccc(Cl)cc1 [compound 813754]
		151	CC[C@H]1CC[C@H](NC[C@@H]2C[C@H]2CN2CCN(c3c(Cl)sc4cc(C(F)(F)F)ccc34)CC2)CC1 [compound 832329]
		36.5	FC(F)(F)c1ccc2c(N3CCN(C[C@@H]4C[C@H]4CNC4CCN(CC5CC5)CC4)CC3)csc2c1 [compound 832387]
		71.9	FC(F)(F)c1ccc2c(N3CCN(C[C@@H]4C[C@H]4CNCCSc4ccc(Cl)cc4)CC3)csc2c1 [compound 832388]
		124	CC[C@H]1CC[C@H](NCC2(CCN3CCC(c4noc5ccsc45)CC3)CC2)CC1 [compound 832401]
		47.6	FC(F)(F)c1cccc2c(C3CCN(C[C@@H]4C[C@H]4CNCC45CC6CC(CC(C6)C4)C5)CC3)noc12 [compound 832783]
		36.5	Cc1nc(Cl)c(Cl)n1CCCNC[C@@H]1C[C@H]1CN1CCN(c2csc3cc(C(F)(F)F)ccc23)CC1 [compound 832817]
		54.9	FC(F)(F)Oc1cccc(CNC[C@@H]2C[C@H]2CN2CCN(c3csc4cc(C(F)(F)F)ccc34)CC2)c1 [compound 833067]
		2.62	FC(F)(F)c1ccc2c(N3CCN(C[C@@H]4C[C@H]4CNCCCn4ccnc4)CC3)csc2c1 [compound 833257, (3-imidazol-1-yl-propyl)-{(1R,2R)-2-[4-(6-trifluoromethyl-benzo[b]thiophen-3-yl)-piperazin-1-ylmethyl]-cyclopropylmethyl}-amine]
		31.9	COc1cccc2c(C3CCN(C[C@@H]4C[C@H]4CN[C@H]4CC[C@H](C)CC4)CC3)noc12 [compound 833329]
		22.9	FC(F)(F)c1ccc2c(N3CCN(C[C@@H]4C[C@H]4CN4CCC(n5ccnc5)CC4)CC3)csc2c1 [compound 833349]
		0.84	COc1ccccc1N1CCN(C[C@@H]2C[C@H]2CN2CCN(c3csc4cc(C(F)(F)F)ccc34)CC2)CC1 [compound 833379]
		112	COc1cccc2c(C3CCN(C[C@@H]4C[C@H]4CNCCC(C)(C)C)CC3)noc12 [compound 833433]
